The IC50 is the point on the concentration scale where inhibition reaches its midpoint. What is called Kd is the constant that tells how readily two partners part at equilibrium.

This is an account of results in patent publication US12162858B2, “Quinoline derivatives as inhibitors of AXL/MER RTK and CSF1R” (QURIENT CO., LTD., priority 2018, dated 2024).

Assay [1] concerns the target T1, Axl (Homo sapiens, UniProt P30530).
T1 sequence (P30530 26-894): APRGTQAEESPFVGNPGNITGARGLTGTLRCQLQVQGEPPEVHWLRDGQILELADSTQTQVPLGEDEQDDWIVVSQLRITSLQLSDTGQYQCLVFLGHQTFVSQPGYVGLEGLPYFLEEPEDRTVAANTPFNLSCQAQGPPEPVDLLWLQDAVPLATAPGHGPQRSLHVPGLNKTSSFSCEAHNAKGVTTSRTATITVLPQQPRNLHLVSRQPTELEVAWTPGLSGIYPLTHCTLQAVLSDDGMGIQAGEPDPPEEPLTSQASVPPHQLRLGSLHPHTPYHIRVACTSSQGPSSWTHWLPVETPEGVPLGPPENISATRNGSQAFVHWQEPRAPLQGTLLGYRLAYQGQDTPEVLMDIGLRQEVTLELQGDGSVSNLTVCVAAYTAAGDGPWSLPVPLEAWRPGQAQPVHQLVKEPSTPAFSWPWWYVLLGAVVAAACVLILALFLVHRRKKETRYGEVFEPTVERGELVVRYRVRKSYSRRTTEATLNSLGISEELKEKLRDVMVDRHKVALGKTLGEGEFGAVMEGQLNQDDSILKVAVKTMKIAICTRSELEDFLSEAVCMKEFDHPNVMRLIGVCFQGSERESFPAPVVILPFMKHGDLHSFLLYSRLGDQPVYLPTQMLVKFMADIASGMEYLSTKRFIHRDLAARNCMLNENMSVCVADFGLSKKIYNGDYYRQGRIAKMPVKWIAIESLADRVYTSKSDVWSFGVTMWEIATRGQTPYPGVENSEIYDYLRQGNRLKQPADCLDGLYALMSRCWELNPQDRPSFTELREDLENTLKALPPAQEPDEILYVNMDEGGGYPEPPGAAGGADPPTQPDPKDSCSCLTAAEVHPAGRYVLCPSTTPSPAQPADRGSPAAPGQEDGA
The experiment in a line: Cellular Axl inhibition ELISA (p-Axl, Gas6-induced) using H1299 cells. It is filed as cell-based. Also on record: especially H1299 cell endogenously expresses Axl; endogenous in cells; host or cells: H1299. To be noted: read-out: Cellular Axl activity by H1299 Elisa (IC50). In outline: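 H1299 cells, seeded overnight, exposed 24 h at 37 °C to 10-point 3-fold compound dilutions, then stimulated with 200 ng/ml human Gas6 (final) for 1 h. Lysates assayed for p-Axl by sandwich ELISA with HRP/TMB, absorbance 450 nm; IC50 by sigmoidal dose-response fit.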

In assay [2] the target is T1, Axl. The experiment in a line: LanthaScreen Eu kinase binding assay for Axl. To be noted: read-out: Axl kinase binding activity (Kd). In outline:
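Kd values come from control-normalized FRET loss, referenced to DMSO vehicle wells, after 1 h at room temperature. Each compound was serially diluted over eight steps in DMSO and competed against Tracer 236 (Alexa Fluor 647) for the kinase, which was tagged by a Eu anti-GST antibody.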
In general terms: Time-resolved FRET reads energy transfer from a long-lived donor to a nearby acceptor.

SMILES strings stand for the structures.

As to `COCCn1cc(OCC(F)(F)F)c(C(=O)Nc2ccc(Oc3ccnc4cc(OC)c(OC)cc34)c(F)c2)n1` [Compound 54], the IC50 in assay [1] was below 500 nM. Also, the dissociation constant (Kd) in assay [2] was below 100 nM.
For `COc1cc2nccc(Oc3ccc(NC(=O)c4nn(C5CCOC5)cc4OCC(F)(F)F)cc3F)c2cc1OC` (centres unmarked) [Compound 55], in that order: below 500 nM and below 100 nM.
For `COc1cc2nccc(Oc3ccc(NC(=O)c4nn(CCO)cc4OCC(F)(F)F)cc3C)c2cc1OC` [Compound 56], in that order: at least 1000 nM and 100 to 500 nM.
Consider `COc1cc2nccc(Oc3ccc(NC(=O)c4nn(C5CCCC5)cc4OCC(F)(F)F)cc3C)c2cc1OC` [Compound 57], for which the IC50 in assay [1] was below 500 nM. The equilibrium dissociation constant (Kd) in assay [2] is below 100 nM.
For `COc1cc2nccc(Oc3ccc(NC(=O)c4nn(CC(C)C)cc4OCC(F)(F)F)cc3C)c2cc1OC` [Compound 58] the same measures were below 500 nM and below 100 nM.
`COc1cc2nccc(Oc3ccc(NC(=O)c4nn(CCO)cc4OCC(F)(F)F)cc3)c2cc1OC` [Compound 59]: the concentration for half-maximal inhibition (IC50) in assay [1] was below 500 nM. The Kd in assay [2] was below 100 nM.
Take `COc1cc2nccc(Oc3ccc(NC(=O)c4nn(C5CCCC5)cc4OCC(F)(F)F)cc3)c2cc1OC` [Compound 60]: the half-inhibitory concentration (IC50) in assay [1] is below 500 nM. In assay [2], the dissociation constant Kd was below 100 nM.
Consider `COCCn1cc(OCC(F)(F)F)c(C(=O)Nc2ccc(Oc3ccnc4cc(OC)c(OC)cc34)cc2)n1` [Compound 61], for which the IC50 in assay [1] was below 500 nM. For the same molecule, the dissociation constant Kd in assay [2] was below 100 nM.
Regarding `COc1cc2nccc(Oc3ccc(NC(=O)c4nn(C5CCOC5)cc4OCC(F)(F)F)cc3)c2cc1OC` (centres unmarked) [Compound 62], the concentration for half-maximal inhibition (IC50) in assay [1] is below 500 nM. Moreover, the dissociation constant Kd in assay [2] is below 100 nM.
In the case of `COc1cc2nccc(Oc3ccc(NC(=O)c4nn(CC(C)N)cc4OCC(F)(F)F)nc3)c2cc1OC` (centres unmarked) [Compound 63], the IC50 in assay [1] was below 500 nM. Also, the dissociation constant Kd in assay [2] is below 100 nM.
With `COc1cc2nccc(Oc3ccc(NC(=O)c4nn(CC(C)(F)F)cc4OCC(F)(F)F)nc3)c2cc1OC` [Compound 64], in assay [1], the half-inhibitory concentration (IC50) was below 500 nM. Besides, in assay [2], the Kd was below 100 nM.
As for `COc1cc2nccc(Oc3ccc(NC(=O)c4nn(CCOC5CCC5)cc4OCC(F)(F)F)nc3)c2cc1OC` [Compound 65], in assay [1], the IC50 is below 500 nM. The Kd in assay [2] was below 100 nM.
As for `COc1cc2nccc(Oc3ccc(NC(=O)c4nn(C5COC5)cc4OCC(F)(F)F)nc3)c2cc1OC` [Compound 66], the 50% inhibitory concentration (IC50) in assay [1] is below 500 nM. For the same molecule, the dissociation constant Kd in assay [2] was below 100 nM.
With `COc1cc2nccc(Oc3ccc(NC(=O)c4nn(CCO)cc4OCC(F)(F)F)nc3)c2cc1OC` [Compound 67], the concentration for half-maximal inhibition (IC50) in assay [1] was below 500 nM. Besides, in assay [2], the Kd is below 100 nM.
Regarding `COc1cc2nccc(Oc3ccc(NC(=O)c4nn(CCCN)cc4OCC(F)(F)F)nc3)c2cc1OC` [Compound 68], in assay [1], the IC50 was below 500 nM. In addition, in assay [2], the dissociation constant (Kd) is below 100 nM.
`COc1cc2nccc(Oc3ccc(NC(=O)c4nn(C5CCCCC5)cc4OCC(F)(F)F)nc3)c2cc1OC` [Compound 69]: the half-maximal inhibitory concentration (IC50) in assay [1] is below 500 nM. Moreover, the Kd in assay [2] was below 100 nM.
`COc1cc2nccc(Oc3ccc(NC(=O)c4nn(C5CCNC5)cc4OCC(F)(F)F)nc3)c2cc1OC` (centres unmarked) [Compound 70]: in assay [1], the IC50 was below 500 nM. The Kd in assay [2] was below 100 nM.
For `COc1cc2nccc(Oc3ccc(NC(=O)c4nn(CC5CCCC5)cc4OCC(F)(F)F)nc3)c2cc1OC` [Compound 71], the half-inhibitory concentration (IC50) in assay [1] was below 500 nM. Also, in assay [2], the equilibrium dissociation constant (Kd) was below 100 nM.
For `COc1cc2nccc(Oc3ccc(NC(=O)c4nn(CC5CCNC5)cc4OCC(F)(F)F)nc3)c2cc1OC` (centres unmarked) [Compound 72], the concentration for half-maximal inhibition (IC50) in assay [1] is at least 1000 nM. Further, in assay [2], the dissociation constant (Kd) is below 100 nM.
As to `COc1cc2nccc(Oc3ccc(NC(=O)c4nn(CC5CNC5)cc4OCC(F)(F)F)nc3)c2cc1OC` [Compound 73], the IC50 in assay [1] was at least 1000 nM. In addition, the dissociation constant Kd in assay [2] is 100 to 500 nM.
For `COc1cc2nccc(Oc3ccc(NC(=O)c4nn(C5CCNC5)cc4OCC(F)(F)F)c(F)c3)c2cc1OC` (centres unmarked) [Compound 74], in assay [1], the IC50 was below 500 nM. The Kd in assay [2] was in the range of 100 to 500 nM.
As for `COc1cc2nccc(Oc3ccc(NC(=O)c4nn(CCN)cc4OCC(F)(F)F)c(F)c3)c2cc1OC` [Compound 75], the IC50 in assay [1] was below 500 nM. Besides, the Kd in assay [2] lay in the range of 100 to 500 nM.
`COc1cc2nccc(Oc3ccc(NC(=O)c4nn(CC(C)O)cc4OCC(F)(F)F)c(F)c3)c2cc1OC` (centres unmarked) [Compound 76]: the 50% inhibitory concentration (IC50) in assay [1] is below 500 nM. The Kd in assay [2] was below 100 nM.
`COc1cc2nccc(Oc3ccc(NC(=O)c4nn(CCC(F)(F)F)cc4OCC4CCC4)nc3)c2cc1OC` [Compound 166]: the half-maximal inhibitory concentration (IC50) in assay [1] is below 500 nM. Besides, in assay [2], the Kd was below 100 nM.
With `CCCn1cc(OCC2CCC2)c(C(=O)Nc2ccc(Oc3ccnc4cc(OC)c(OC(F)(F)F)cc34)cn2)n1` [Compound 167], the IC50 in assay [1] is below 500 nM. Besides, the Kd in assay [2] is below 100 nM.
With `COc1cc2nccc(Oc3ccc(NC(=O)c4nn(CCNC5CC5)cc4OCC(F)(F)F)nc3)c2cc1OC` [Compound 168], in assay [1], the half-inhibitory concentration (IC50) is below 500 nM. Further, the Kd in assay [2] was below 100 nM.
Regarding `COc1cc2nccc(Oc3ccc(NC(=O)c4nn(CC5CCN(C)C5)cc4OCC(F)(F)F)nc3)c2cc1OC` (centres unmarked) [Compound 169], the IC50 in assay [1] is at least 1000 nM. Besides, the Kd in assay [2] was below 100 nM.
Consider `COc1cc2nccc(Oc3ccc(NC(=O)c4nn(C5CC5)cc4OCCC(F)(F)F)nc3)c2cc1OC` [Compound 170], for which the IC50 in assay [1] was below 500 nM. The Kd in assay [2] was below 100 nM.
Consider `COCCOc1cn(C2CC2)nc1C(=O)Nc1ccc(Oc2ccnc3cc(OC)c(OC)cc23)nn1` [Compound 171], for which, in assay [1], the IC50 is below 500 nM. Moreover, in assay [2], the Kd is below 100 nM.
Take `COc1cc2nccc(Oc3ccc(NC(=O)c4nn(C5CC5)cc4OCC4CNC4)nn3)c2cc1OC` [Compound 172]: in assay [1], the half-maximal inhibitory concentration (IC50) was at least 1000 nM. In assay [2], the Kd was at least 500 nM.
As for `COc1cc2nccc(Oc3ccc(NC(=O)c4nn(C5CC5)cc4OCCC(F)(F)F)nn3)c2cc1OC` [Compound 173], the half-maximal inhibitory concentration (IC50) in assay [1] was below 500 nM. For the same molecule, in assay [2], the Kd was below 100 nM.
Take `COc1cc2nccc(Oc3ccc(NC(=O)c4nn(CC(C)O)cc4OCC4CN(C)C4)nc3)c2cc1OC` (centres unmarked) [Compound 174]: the IC50 in assay [1] was at least 1000 nM. The dissociation constant Kd in assay [2] was at least 500 nM.
For `COc1cc2nccc(Oc3ccc(NC(=O)c4nn(CC(C)O)cc4OCC(F)F)nc3)c2cc1OC` (centres unmarked) [Compound 175], the IC50 in assay [1] is below 500 nM. For the same molecule, the Kd in assay [2] is below 100 nM.
For `COc1cc2nccc(Oc3ccc(NC(=O)c4nc(CCC(F)(F)F)oc4CCC4CCC4)nc3)c2cc1OC` [Compound 176] the same measures were below 500 nM and 100 to 500 nM.
Turning to `CCCn1cc(OCCN(C)C)c(C(=O)Nc2ccc(Oc3ccnc4cc(OC)c(OC)cc34)cn2)n1` [Compound 177], in assay [1], the half-inhibitory concentration (IC50) was below 500 nM. For the same molecule, in assay [2], the Kd was below 100 nM.
For `COc1cc2nccc(Oc3ccc(NC(=O)c4cc(C5CC5)cnc4OCC(F)(F)F)nc3)c2cc1OC` [Compound 178] the same measures were below 500 nM and below 100 nM.
Consider `COc1cc2nccc(Oc3ccc(NC(=O)c4sc(C5CC5)cc4OCC(F)(F)F)nc3)c2cc1OC` [Compound 179], for which, in assay [1], the concentration for half-maximal inhibition (IC50) is below 500 nM. Besides, in assay [2], the dissociation constant (Kd) lay within 100 to 500 nM.
